In patent publication US20230172901A1, “COMPOSITIONS AND METHODS FOR THE PROPHYLAXIS AND TREATMENT OF FIBROTIC AND INFLAMMATORY CONDITIONS” (GRETALS AUSTRALIA PTY LTD, priority 2020, published 2023):
“Also recorded” adds a separate entry of the source.

Experiments:
[1] = system: sheep model for pulmonary fibrosis, bleomycin-injured lung segments; experiment: Example 2: segmental lung compliance (Cseg) in bleomycin-injured sheep lung segments; format: in vivo
Method: Segmental compliance (Cseg) was assessed using pressure responses to flow in the different segments as indicated FIG. 2 in awake, consciously breathing sheep using a wedged-bronchoscope technique. Briefly, a custom-built Segmental Lung Airway Monitoring (SLAM) System was used to monitor the segmental flow and pressure. After first determining the bronchoscope resistance to the set flow, the bronchoscope was wedged into an airway in the lung segment of interest and a constant flow (6 mL/s) of 5% C02 in air was passed through the working channel of the bronchoscope.
Segmental lung compliance was calculated. Briefly, after the bronchoscope was wedged into the specific region of the lung, pressure was allowed to reach a steady state. After approximately 5 s at steady state, airflow was interrupted turning off the airflow supply. Segmental compliance was then calculated from the pressure-flow decay curve generated from this procedure. The process was repeated 3 times for each segment and expressed as an average value for Cseg. The pressure was recorded by a PM-1000 Transducer Amplifiers (CWE Inc., Admore, USA) and flow was recorded using a mass flow meter (824-S, Sierra Instruments, Monterey, USA). Data were acquired with Data Acquisition Card (PCI-6233; National Instruments Corp., Austin, USA) and was analysed with the SLAM system (Latitude E6520, Dell Computer Corporation, Texas USA and LabVIEW, National Instruments Corp., Austin, USA). All resistance measurements were corrected for the resistance of flow through the working channel of the bronchoscope.
(§1) In this study, a total of 10 sheep were used. Fibrosis in two lung segments of each sheep in a similar manner as performed in Example 1 herein. Using this procedure (as detailed further below) the fibrosis was confined to small, isolated regions in the lungs leaving the remaining 90-95% of the healthy unaffected lungs to undertake normal respiratory function.
(§2) All sheep (n=10) in the study were challenged with 2 single doses of bleomycin (3 units) per lung segment, a fortnight apart and the animals were kept for a little over 5 weeks after the final bleomycin dose. Bleomycin is a well-known agent for inducing fibrosis in the lungs. The administration procedure involves inserting a bronchoscope into lung segments in the right and left lung, and then slowly infusing the bleomycin into two segments as shown in FIG. 2 via the bronchoscope biopsy port. […]
Lung function was assessed in all test lung-segments (left and right caudal lobes, and medial lobe in each sheep). The functional capacity of the lung segments was measured through the endoscope using the procedure outlined in Example 1 herein. The lung function parameter assessed in this study is referred to as compliance in the lung segment (abbreviated to Cseg). […]

[2] = system: sheep model for pulmonary fibrosis, bleomycin-injured lung segments; experiment: Example 2: hydroxyproline assay for collagen content; format: in vivo; settings: increase induced by bleomycin
From the text: as §1, §2
The hydroxyproline assay was used to extrapolate the collagen content and concentration of each segment. Briefly, frozen lung tissues from each segment were lyophilized to dry weight, hydrolyzed in 6M HCl, and assessed for hydroxyproline content by measuring the absorbance of reconstituted samples (in 0.1M HCl) at 558 nm using a Beckman DU-64 spectrophotometer (Beckman Coulter Inc, Brea, Calif.). Hydroxyproline content was determined from a standard curve of trans-L-hydroxy-L-proline (Sigma-Aldrich).). […]

sheep = experiment: Example 2: animal health and safety of pinocembrin administration; format: in vivo
Method: (§3) In the study detailed in Example 1 herein, the dose-rate of pinocembrin was 7 mg pinocembrin per sheep, per week.
For control purposes the lung segment in the opposite lung was used as a bleomycin-positive, without drug, control, as indicated in FIG. 1. The bioactive molecules in vehicle, were delivered as 5 ml infusions through the biopsy port of the bronchoscope. Note that to nullify any small differences (e.g. physiological or anatomical etc.) between the left and right lungs, the infusions of pinocembrin were randomized between the left and right caudal lung segments. Half the animals (5 sheep) received pinocembrin to the right caudal lung segments, while the other 5 sheep received pinocembrin to the left caudal lung segments. The right medial lung segment was left untreated and used for healthy lung control tissue which was sampled at autopsy (FIG. 2).
The sheep were bled at the times indicated in FIG. 1 by sampling 10 ml of blood from the jugular vein into a tube containing heparin. The blood was processed for blood cell count analyses.
Health checks were routinely performed throughout the treatment periods and throughout the trial until euthanasia.

[3] = system: sheep model for pulmonary fibrosis; experiment: Example 2: overall conclusion on efficacy in sheep model of pulmonary fibrosis; format: in vivo
From the text: as §1
All sheep (n=10) in the study were challenged with 2 single doses of bleomycin (3 units) per lung segment, a fortnight apart and the animals were kept for a little over 5 weeks after the final bleomycin dose. Bleomycin is a well-known agent for inducing fibrosis in the lungs. The administration procedure involves inserting a bronchoscope into lung segments in the right and left lung, and then slowly infusing the bleomycin into two segments as shown in FIG. 2 via the bronchoscope biopsy port.
as §3
For control purposes the lung segment in the opposite lung was used as a bleomycin-positive, without drug, control, as indicated in FIG. 1. The bioactive molecules in vehicle, were delivered as 5 ml infusions through the biopsy port of the bronchoscope. […]

[4] = soxhlet extraction of dry leaves with n-hexane or methanol; cited from earlier work
[5] = pinocembrin treatment period, 10 sheep
[6] = throughout the pinocembrin treatment period, 10 sheep

O=C1CC(c2ccccc2)Oc2cc(O)cc(O)c21 (centres unmarked) [pinocembrin, 5,7-Dihydroxy-2-Phenyl-2,3-Dihydro-4H-Chromen-4-One]
lung function in lung segments injured by bleomycin (summary) ([1]; 4 weekly doses of 7 mg, n=10 sheep): significantly improved
sheep with improved function (Cseg) in bleomycin-damaged, pinocembrin-treated lung segments ([1]; individual sheep data, 4 weekly infusions of 7 mg, 10 sheep): eight out of ten
percentage change in compliance from baseline ([1]; week 0 to week 11, after four weekly administrations, n=10 sheep): significantly improved
mean segmental compliance (Cseg) compared with untreated healthy control lung segments ([1]; week 11, 7 mg in 10% DMSO infused into bleomycin-injured caudal segment, 4 weekly doses, n=10 sheep): not significantly different from the untreated healthy control lung segments
collagen content (hydroxyproline assay) ([2]; 4 weekly treatments of 7 mg, 10 sheep (FIG. 16A)): did not reduce; also recorded: not associated with a significant decrease; also recorded: did not address the increase
collagen content (hydroxyproline assay) ([2]; all 13 sheep of Examples 1 and 2 (FIG. 16B)): does not reduce
untoward health effects (clinical assessment criteria) (sheep; all ten sheep undergoing the trial): no untoward health effects
differential counts of blood leukocytes (sheep; both sampling time points, 10 sheep): within normal ranges
additional pathology or lung damage in pinocembrin exposed segments (sheep; lung segment exposed to pinocembrin, post-mortem): no obvious signs of additional pathology or lung damage
adverse health events (sheep; [5]): no otherwise adverse health events
weight gain (sheep; [5]): expected normal range
core temperature readings (sheep; [6]): within the normal range
heart, and respiratory rates (sheep; [6]): within normal ranges
animal health during treatment period (sheep; week 8 to week 12, 7 mg per sheep per week into one lung segment, 10 sheep): remained healthy
anti-inflammatory properties (overall) ([3]; from BAL cell and parenchymal T cell data): strong anti-inflammatory properties
anti-fibrotic effect (overall) ([3]; from fibrosis scores, Masson's trichrome and hydroxy proline assays): modest anti-fibrotic effect
temperature survived for extended periods [4]: up to 68 °C
